From patent US7842324B2 (Senomyx, Inc., priority 2005, dated 2010)

System: tasters
Assay: Reduced sugar dry beverage mix (strawberry beverage) sensory evaluation
Type: in vivo, human
Conditions: ⅔ sugared strawberry beverage + 1.3 ppm, scale 1 to 10
Description: 1000.00 g of the finished beverage was formulated. Compound 23 was diluted with maltodextrin (1:100) to form a sweetener concentrate composition prior to addition to the other dry beverage base ingredients. 50 g of the maltodextrin was placed on the bottom of a clean and dried mortar and 1.0000 g of compound 23 was added and slowly ground into the maltodextrin with the pestle. The remaining maltodextrin was added to a planetary mixer with a wire whip attachment (KITCHEN AIDE™ Mixer), and the contents of the mortar were placed into the mixer and the mixer was turned on to a slow speed (setting 3) and allowed to mix for an additional 10 minutes.
The contents of the glass container were re-mixed in the glass container before taking out aliquots of the dry diluted sweet enhancer. Using the KITCHEN AIDE™ Mixer with the wire whip attachment, the granulated ingredients of the beverage base (sugar, acid) were mixed slowly at speed 2 using the wire whip attachment for 3 minutes and 0.13 grams of the 1:100 diluted solid sweetener concentrate composition was added and mixed at speed 3 for 5 minutes. Calcium silicate was added and allowed to mix for another 5 minutes until the silicate was evenly dispersed. The dry flavor and dry color were added last and allowed to mix for another 10 minutes. A plastic spatula was used to scrape the inside of the mixing bowl to ensure complete recovery of the dry beverage base composition.
The water was placed in a stainless steel 3 L cylinder and a LIGHTNIN™ Mixer was set at 500 to 650 rpms using a 2.5 inch (6.35 cm) impeller with three straight blades. This was used to create a vortex in the water. The impeller blades were positioned at a 30 to 45° angle. The dry beverage base (53.525 grams) was slowly added to the vortex of the water and was mixed for an additional 5 minutes until all the sugar and acids had dissolved.
Samples of control sugared strawberry beverages containing sugar at the full level indicated above (50, 66.67, 80, 90, and 100% of full sugar), and the strawberry beverage comprising ⅔ sugar+1.3 ppm compound 23 were given to tasters in randomized order. Tasters used an anchored scale from 1 to 10 (1 being no sweetness, 10 being intense sweetness). Tasters were instructed to hold the beverage in their mouth for at least 5 seconds, expectorate the sample, and evaluate/rank the “peak” of sweetness intensity of their various samples. They were allowed to re-taste and re-position their samples on the physical line scale. Once satisfied with their rankings, they wrote down their code and corresponding rank score.

Structure (SMILES): CC(C)CNC(=O)C(C)(C)c1ccc(-c2cncc(C#N)c2)cc1 [Compound 23, 2-(4-(5-cyanopyridin-3-yl)phenyl)-N-isobutyl-2-methylpropanamide]
- Sweet Score from Individual Tastors #1: 8
- Sweet Score from Individual Tastors #2: 7
- Sweet Score from Individual Tastors #3: 7
- Sweet Score from Individual Tastors #4: 8
- Sweet Score from Individual Tastors #5: 7.5
- Sweet Score from Individual Tastors #6: 7
- Sweet Score from Individual Tastors #7: 8
- Sweet Score from Individual Tastors #8: 8
- Average Scores (mean of eight tasters): 7.56
